According to the OligoGym collection:
Oligonucleotides are given in HELM: sugar(base)linkage, 5' to 3'; d 2'-deoxyribose, r ribose, m 2'-O-methylribose, p phosphate. ss, as = sense and antisense strand

What follows are substances tested against UBE2K (assay: reporter assay of Huesken 2005). Conditions: siRNA.
Note: test concentration or dose not given here.

Substance	normalised inhibition (eCFP-eYFP dual reporter) [%]
RNA1{r(G)p.r(C)p.r(U)p.r(G)p.r(C)p.r(A)p.r(A)p.r(U)p.r(G)p.r(A)p.r(C)p.r(U)p.r(C)p.r(U)p.r(C)p.r(C)p.r(G)p.r(C)p.r(A)p.d(T)p.d(T)}|RNA2{r(U)p.r(G)p.r(C)p.r(G)p.r(G)p.r(A)p.r(G)p.r(A)p.r(G)p.r(U)p.r(C)p.r(A)p.r(U)p.r(U)p.r(G)p.r(C)p.r(A)p.r(G)p.r(C)p.d(T)p.d(G)}$$$RNA1{StrandType:ss}|RNA2{StrandType:as}$	87.1
RNA1{r(G)p.r(C)p.r(U)p.r(G)p.r(U)p.r(A)p.r(G)p.r(U)p.r(A)p.r(G)p.r(C)p.r(A)p.r(A)p.r(A)p.r(U)p.r(C)p.r(A)p.r(G)p.r(U)p.d(T)p.d(T)}|RNA2{r(A)p.r(C)p.r(U)p.r(G)p.r(A)p.r(U)p.r(U)p.r(U)p.r(G)p.r(C)p.r(U)p.r(A)p.r(C)p.r(U)p.r(A)p.r(C)p.r(A)p.r(G)p.r(C)p.d(A)p.d(T)}$$$RNA1{StrandType:ss}|RNA2{StrandType:as}$	87.4
RNA1{r(G)p.r(G)p.r(C)p.r(A)p.r(G)p.r(C)p.r(U)p.r(G)p.r(C)p.r(A)p.r(A)p.r(U)p.r(G)p.r(A)p.r(C)p.r(U)p.r(C)p.r(U)p.r(C)p.d(T)p.d(T)}|RNA2{r(G)p.r(A)p.r(G)p.r(A)p.r(G)p.r(U)p.r(C)p.r(A)p.r(U)p.r(U)p.r(G)p.r(C)p.r(A)p.r(G)p.r(C)p.r(U)p.r(G)p.r(C)p.r(C)p.d(C)p.d(A)}$$$RNA1{StrandType:ss}|RNA2{StrandType:as}$	57.6
RNA1{r(G)p.r(G)p.r(C)p.r(A)p.r(G)p.r(C)p.r(U)p.r(G)p.r(C)p.r(A)p.r(G)p.r(A)p.r(G)p.r(C)p.r(C)p.r(A)p.r(G)p.r(A)p.r(U)p.d(T)p.d(T)}|RNA2{r(A)p.r(U)p.r(C)p.r(U)p.r(G)p.r(G)p.r(C)p.r(U)p.r(C)p.r(U)p.r(G)p.r(C)p.r(A)p.r(G)p.r(C)p.r(U)p.r(G)p.r(C)p.r(C)p.d(A)p.d(A)}$$$RNA1{StrandType:ss}|RNA2{StrandType:as}$	81.8
RNA1{r(G)p.r(G)p.r(G)p.r(G)p.r(C)p.r(U)p.r(A)p.r(U)p.r(U)p.r(U)p.r(G)p.r(U)p.r(U)p.r(U)p.r(G)p.r(G)p.r(A)p.r(U)p.r(A)p.d(T)p.d(T)}|RNA2{r(U)p.r(A)p.r(U)p.r(C)p.r(C)p.r(A)p.r(A)p.r(A)p.r(C)p.r(A)p.r(A)p.r(A)p.r(U)p.r(A)p.r(G)p.r(C)p.r(C)p.r(C)p.r(C)p.d(T)p.d(G)}$$$RNA1{StrandType:ss}|RNA2{StrandType:as}$	81.2
RNA1{r(G)p.r(G)p.r(U)p.r(U)p.r(U)p.r(A)p.r(U)p.r(C)p.r(A)p.r(C)p.r(U)p.r(A)p.r(A)p.r(A)p.r(A)p.r(U)p.r(A)p.r(U)p.r(G)p.d(T)p.d(T)}|RNA2{r(C)p.r(A)p.r(U)p.r(A)p.r(U)p.r(U)p.r(U)p.r(U)p.r(A)p.r(G)p.r(U)p.r(G)p.r(A)p.r(U)p.r(A)p.r(A)p.r(A)p.r(C)p.r(C)p.d(G)p.d(G)}$$$RNA1{StrandType:ss}|RNA2{StrandType:as}$	81.2
RNA1{r(G)p.r(U)p.r(A)p.r(C)p.r(A)p.r(A)p.r(A)p.r(C)p.r(A)p.r(A)p.r(A)p.r(A)p.r(U)p.r(C)p.r(C)p.r(C)p.r(G)p.r(A)p.r(A)p.d(T)p.d(T)}|RNA2{r(U)p.r(U)p.r(C)p.r(G)p.r(G)p.r(G)p.r(A)p.r(U)p.r(U)p.r(U)p.r(U)p.r(G)p.r(U)p.r(U)p.r(U)p.r(G)p.r(U)p.r(A)p.r(C)p.d(T)p.d(G)}$$$RNA1{StrandType:ss}|RNA2{StrandType:as}$	73.9
RNA1{r(G)p.r(U)p.r(A)p.r(G)p.r(U)p.r(A)p.r(G)p.r(C)p.r(A)p.r(A)p.r(A)p.r(U)p.r(C)p.r(A)p.r(G)p.r(U)p.r(A)p.r(C)p.r(A)p.d(T)p.d(T)}|RNA2{r(U)p.r(G)p.r(U)p.r(A)p.r(C)p.r(U)p.r(G)p.r(A)p.r(U)p.r(U)p.r(U)p.r(G)p.r(C)p.r(U)p.r(A)p.r(C)p.r(U)p.r(A)p.r(C)p.d(A)p.d(G)}$$$RNA1{StrandType:ss}|RNA2{StrandType:as}$	92.1
